Measured values as given in patent US20250122218A1, “MODULATORS OF CYSTIC FIBROSIS TRANSMEMBRANE CONDUCTANCE REGULATOR” (Vertex Pharmaceuticals Incorporated, priority 2022, published 2025).
pEC50: −log10 of the molar value.

These molecules were tested against T1, CFTR in F508del/MF-HBE cells (Homo sapiens, UniProt P13569, DEL508-508) (assay: Ussing chamber assay of CFTR-mediated short-circuit currents (identification of potentiator compounds)). Conditions: potentiator incubated 18-24 hours at 37° C. in combination with 10 μM corrector, in the presence of 20% human serum, CFTR-mediated ISC.
T1 construct: human bronchial epithelial (HBE) cells derived from CF subjects heterozygous for F508del and a minimal function CFTR mutation; endogenous in cells; host or cells: primary human bronchial epithelial cells from CF subjects (F508del/MF-HBE)
Format: cell-based
Procedure, shortened: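 F508del/MF-HBE cultures were preincubated 18-24 h at 37° C with potentiator plus 10 μM of a fixed corrector compound in 20% human serum; compounds were kept present during measurement. ISC was recorded under voltage clamp (0 mV, 37° C, amiloride apical) and taken as the 20 μM forskolin peak minus the current after inhibitor cocktail.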

T1 sequence (P13569 with tags, fused parts or gaps DEL508-508): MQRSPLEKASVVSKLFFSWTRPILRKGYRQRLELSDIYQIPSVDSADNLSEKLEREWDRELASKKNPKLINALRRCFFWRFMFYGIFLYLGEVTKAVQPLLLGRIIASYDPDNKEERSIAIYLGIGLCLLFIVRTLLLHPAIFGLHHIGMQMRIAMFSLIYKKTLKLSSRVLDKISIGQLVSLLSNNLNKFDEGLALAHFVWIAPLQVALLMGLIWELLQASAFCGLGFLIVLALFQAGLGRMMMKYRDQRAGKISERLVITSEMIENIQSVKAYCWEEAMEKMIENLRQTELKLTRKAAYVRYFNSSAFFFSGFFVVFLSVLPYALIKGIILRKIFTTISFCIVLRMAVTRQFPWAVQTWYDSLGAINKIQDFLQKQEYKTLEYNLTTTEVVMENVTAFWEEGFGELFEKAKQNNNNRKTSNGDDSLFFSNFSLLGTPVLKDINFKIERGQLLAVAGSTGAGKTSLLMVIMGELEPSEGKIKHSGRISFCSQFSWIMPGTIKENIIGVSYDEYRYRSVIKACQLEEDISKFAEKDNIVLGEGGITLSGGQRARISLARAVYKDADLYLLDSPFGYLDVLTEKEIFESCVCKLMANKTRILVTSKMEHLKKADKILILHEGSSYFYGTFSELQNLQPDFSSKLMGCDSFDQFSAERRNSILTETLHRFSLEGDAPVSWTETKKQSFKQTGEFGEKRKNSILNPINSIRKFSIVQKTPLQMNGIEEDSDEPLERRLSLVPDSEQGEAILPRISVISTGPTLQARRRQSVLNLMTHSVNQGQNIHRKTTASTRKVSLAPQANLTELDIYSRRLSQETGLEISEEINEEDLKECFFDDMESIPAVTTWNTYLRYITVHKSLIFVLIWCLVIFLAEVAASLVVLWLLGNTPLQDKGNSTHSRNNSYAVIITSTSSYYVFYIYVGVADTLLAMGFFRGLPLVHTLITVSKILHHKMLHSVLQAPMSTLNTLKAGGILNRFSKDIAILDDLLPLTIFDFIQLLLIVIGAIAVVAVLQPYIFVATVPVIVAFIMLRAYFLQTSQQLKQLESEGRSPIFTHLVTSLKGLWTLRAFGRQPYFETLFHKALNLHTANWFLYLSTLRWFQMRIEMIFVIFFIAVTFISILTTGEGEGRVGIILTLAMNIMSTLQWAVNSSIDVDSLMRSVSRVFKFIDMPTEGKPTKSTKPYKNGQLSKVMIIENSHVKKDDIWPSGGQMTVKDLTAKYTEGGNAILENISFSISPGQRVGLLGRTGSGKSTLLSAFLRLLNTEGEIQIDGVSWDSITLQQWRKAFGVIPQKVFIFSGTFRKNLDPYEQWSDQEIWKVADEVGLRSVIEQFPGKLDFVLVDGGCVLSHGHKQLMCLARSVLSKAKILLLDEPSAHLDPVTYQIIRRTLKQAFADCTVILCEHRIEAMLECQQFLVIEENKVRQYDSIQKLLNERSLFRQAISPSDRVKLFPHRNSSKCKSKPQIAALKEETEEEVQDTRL

| Structure (SMILES) | pEC50 |
| --- | --- |
| CCCc1cccc(CN2CCCCC[C@](O)(C(F)(F)F)C3=NN=C(O3)c3nc(c(C(F)(F)F)cc3N)C2=O)c1 [Compound 148, (6R)-17-amino-6-hydroxy-12-[(3-propylphenyl)methyl]-6,15-bis (trifluoromethyl)-19-oxa-3,4,12,18-tetrazatricyclo [12.3.1.12,5] nonadeca-1(18),2,4,14,1 6-pentaen-13-one] | > 6.30 |
| Nc1cc(C(F)(F)F)c2nc1-c1nnc(o1)[C@@](O)(C(F)(F)F)CCCCCN(Cc1cccc(Cl)c1)C2=O [Compound 149, (6R)-17-amino-12-[(3-chlorophenyl)methyl]-6-hydroxy-6,15-bis (trifluoromethyl)-19-oxa-3,4,12,18-tetrazatricyclo [12.3.1.12,5] nonadeca-1(18),2,4,14,1 6-pentaen-13-one] | > 6.30 |
| CC1(C)Cc2cc(CN3CCCCC[C@](O)(C(F)(F)F)C4=NN=C(O4)c4nc(c(C(F)(F)F)cc4N)C3=O)ccc2O1 [Compound 150, (6R)-17-amino-12-[(2,2-dimethyl-3H-benzofuran-5-yl)methyl]-6-hydroxy-6,15-bis (trifluoromethyl)-19-oxa-3,4,12,18-tetrazatricyclo [12.3.1.12,5] nonadeca-1(18),2,4,14,1 6-pentaen-13-one] | > 6.30 |
| Nc1cc(C(F)(F)F)c2nc1-c1nnc(o1)[C@@](O)(C(F)(F)F)CCCCCN(Cc1ccc(C3(C(F)(F)F)CC3)cc1)C2=O [Compound 151] | > 6.30 |
| Nc1cc(C(F)(F)F)c2nc1-c1nnc(o1)[C@@](O)(C(F)(F)F)CCCCCN([C@H]1C[C@@H](c3ccccc3)C1)C2=O [Compound 152, (6R)-17-amino-6-hydroxy-12-(3-phenylcyclobutyl)-6,15-bis (trifluoromethyl)-19-oxa-3,4,12,18-tetrazatricyclo [12.3.1.12,5] nonadeca-1(18),2,4,14,1 6-pentaen-13-one] | > 6.30 |
| Nc1cc(C(F)(F)F)c2nc1-c1nnc(o1)[C@@](O)(C(F)(F)F)CCCCCN(Cc1ccc(OC(F)(F)F)c(Cl)c1)C2=O [Compound 153, (6R)-17-amino-12-[[3-chloro-4-(trifluoromethoxy)phenyl]methyl]-6-hydroxy-6,15-bis(trifluoromethyl)-19-oxa-3,4,12,18-tetrazatricyclo [12.3.1.12,5] nonadeca-1(18),2,4,14,1 6-pentaen-13-one] | > 6.30 |
| C[C@@H](c1ccc(OC(F)(F)F)cc1)N1CCCCC[C@](O)(C(F)(F)F)C2=NN=C(O2)c2nc(c(C(F)(F)F)cc2N)C1=O [Compound 154, (6R)-17-amino-6-hydroxy-12-[(1S)-1-[4-(trifluoromethoxy)phenyl]ethyl]-6,15-bis (trifluoromethyl)-19-oxa-3,4,12,18-tetrazatricyclo [12.3.1.12,5] nonadeca-1(18),2,4,14,1 6-pentaen-13-one] | > 6.30 |
| COc1ccccc1CN1CCCCC[C@](O)(C(F)(F)F)C2=NN=C(O2)c2nc(c(C(F)(F)F)cc2N)C1=O [Compound 155, (6R)-17-amino-6-hydroxy-12-[(2-methoxyphenyl)methyl]-6,15-bis (trifluoromethyl)-19-oxa-3,4,12,18-tetrazatricyclo [12.3.1.12,5] nonadeca-1(18),2,4,14,1 6-pentaen-13-one] | > 6.30 |
| Nc1cc(C(F)(F)F)c2nc1-c1nnc(o1)[C@@](O)(C(F)(F)F)CCCCCN(Cc1ccccc1C(F)(F)F)C2=O [Compound 156, (6R)-17-amino-6-hydroxy-6,15-bis (trifluoromethyl)-12-[[2-(trifluoromethyl)phenyl]methyl]-19-oxa-3,4,12,18-tetrazatricyclo [12.3.1.12,5] nonadeca-1(18),2,4,14,1 6-pentaen-13-one] | > 6.30 |
| Cc1cc(OC(F)(F)F)ccc1CN1CCCCC[C@](O)(C(F)(F)F)C2=NN=C(O2)c2nc(c(C(F)(F)F)cc2N)C1=O [Compound 157, (6R)-17-amino-6-hydroxy-12-[[2-methyl-4-(trifluoromethoxy)phenyl]methyl]-6,15-bis (trifluoromethyl)-19-oxa-3,4,12,18-tetrazatricyclo [12.3.1.12,5] nonadeca-1(18),2,4,14,1 6-pentaen-13-one] | > 6.30 |

Results, then the molecule that gave them:

| pEC50 | Structure (SMILES) |
| --- | --- |
| > 6.30 | COc1cc(OC(F)(F)F)ccc1CN1CCCCC[C@](O)(C(F)(F)F)C2=NN=C(O2)c2nc(c(C(F)(F)F)cc2N)C1=O [Compound 158, (6R)-17-amino-6-hydroxy-12-[[2-methoxy-4-(trifluoromethoxy)phenyl]methyl]-6,15-bis(trifluoromethyl)-19-oxa-3,4,12,18-tetrazatricyclo [12.3.1.12,5] nonadeca-1(18),2,4,14,1 6-pentaen-13-one] |
| > 6.30 | Nc1cc(C(F)(F)F)c2nc1-c1nnc(o1)[C@@](O)(C(F)(F)F)CCCCCN(Cc1ccc(OC(F)(F)F)cc1F)C2=O [Compound 159, (6R)-17-amino-12-[[2-fluoro-4-(trifluoromethoxy)phenyl]methyl]-6-hydroxy-6,15-bis (trifluoromethyl)-19-oxa-3,4,12,18-tetrazatricyclo [12.3.1.12,5] nonadeca-1(18),2,4,14,1 6-pentaen-13-one] |
| > 6.30 | COc1ccc(CN2CCCCC[C@](O)(C(F)(F)F)C3=NN=C(O3)c3nc(c(C(F)(F)F)cc3N)C2=O)cc1F [Compound 160, (6R)-17-amino-12-[(3-fluoro-4-methoxy-phenyl)methyl]-6-hydroxy-6,15-bis (trifluoromethyl)-19-oxa-3,4,12,18-tetrazatricyclo [12.3.1.12,5] nonadeca-1(18),2,4,14,1 6-pentaen-13-one] |
| > 6.30 | Nc1cc(C(F)(F)F)c2nc1-c1nnc(o1)[C@@](O)(C(F)(F)F)CCCCCN(Cc1ccc(OC(F)(F)C(F)F)cc1)C2=O [Compound 161, (6R)-17-amino-6-hydroxy-12-[[4-(1,1,2,2-tetrafluoroethoxy)phenyl]methyl]-6,15-bis (trifluoromethyl)-19-oxa-3,4,12,18-tetrazatricyclo [12.3.1.12,5] nonadeca-1(18),2,4,14,1 6-pentaen-13-one] |
| > 6.30 | CCCc1ccc(CN2CCCCC[C@](O)(C(F)(F)F)C3=NN=C(O3)c3nc(c(C(F)(F)F)cc3N)C2=O)cc1 [Compound 162, (6R)-17-amino-6-hydroxy-12-[(4-propylphenyl)methyl]-6,15-bis (trifluoromethyl)-19-oxa-3,4,12,18-tetrazatricyclo [12.3.1.12,5] nonadeca-1(18),2,4,14,1 6-pentaen-13-one] |
| > 6.30 | COc1cc(CN2CCCCC[C@](O)(C(F)(F)F)C3=NN=C(O3)c3nc(c(C(F)(F)F)cc3N)C2=O)ccc1F [Compound 163, (6R)-17-amino-12-[(4-fluoro-3-methoxy-phenyl)methyl]-6-hydroxy-6,15-bis (trifluoromethyl)-19-oxa-3,4,12,18-tetrazatricyclo [12.3.1.12,5] nonadeca-1(18),2,4,14,1 6-pentaen-13-one] |
| > 6.30 | COc1cc(F)ccc1CN1CCCCC[C@](O)(C(F)(F)F)C2=NN=C(O2)c2nc(c(C(F)(F)F)cc2N)C1=O [Compound 164, (6R)-17-amino-12-[(4-fluoro-2-methoxy-phenyl)methyl]-6-hydroxy-6,15-bis (trifluoromethyl)-19-oxa-3,4,12,18-tetrazatricyclo [12.3.1.12,5] nonadeca-1(18),2,4,14,1 6-pentaen-13-one] |
| > 6.30 | Cc1cc(CN2CCCCC[C@](O)(C(F)(F)F)C3=NN=C(O3)c3nc(c(C(F)(F)F)cc3N)C2=O)ccc1OC(F)(F)F [Compound 165] |
| > 6.30 | Nc1cc(C(F)(F)F)c2nc1-c1nnc(o1)[C@@](O)(C(F)(F)F)CCCCCN(Cc1cccc(-c3ccccc3)c1)C2=O [Compound 166, (6R)-17-amino-6-hydroxy-12-[(3-phenylphenyl)methyl]-6,15-bis (trifluoromethyl)-19-oxa-3,4,12,18-tetrazatricyclo [12.3.1.12,5] nonadeca-1(18),2,4,14,1 6-pentaen-13-one] |
| < 6.00 | Cc1cnc(CN2CCCCC[C@](O)(C(F)(F)F)C3=NN=C(O3)c3nc(c(C(F)(F)F)cc3N)C2=O)cn1 [Compound 167, (6R)-- 17-amino-6-hydroxy-12-[(5-methylpyrazin-2-yl)methyl]-6,15-bis (trifluoromethyl)-19-oxa-3,4,12,18-tetrazatricyclo [12.3.1.12,5] nonadeca-1(18),2,4,14,1 6-pentaen-13-one] |
| > 6.30 | CCCc1ccccc1CN1CCCCC[C@](O)(C(F)(F)F)C2=NN=C(O2)c2nc(c(C(F)(F)F)cc2N)C1=O [Compound 168, (6R)-17-amino-6-hydroxy-12-[(2-propylphenyl)methyl]-6,15-bis (trifluoromethyl)-19-oxa-3,4,12,18-tetrazatricyclo [12.3.1.12,5] nonadeca-1(18),2,4,14,1 6-pentaen-13-one] |
| < 6.00 | Cc1cnc(CN2CCCCC[C@](O)(C(F)(F)F)C3=NN=C(O3)c3nc(c(C(F)(F)F)cc3N)C2=O)nc1 [Compound 169, (6R)-17-amino-6-hydroxy-12-[(5-methylpyrimidin-2-yl)methyl]-6,15-bis (trifluoromethyl)-19-oxa-3,4,12,18-tetrazatricyclo [12.3.1.12,5] nonadeca-1(18),2,4,14,1 6-pentaen-13-one] |
| > 6.30 | CC(C)(C)Cc1ccc(CN2CCCCC[C@](O)(C(F)(F)F)C3=NN=C(O3)c3nc(c(C(F)(F)F)cc3N)C2=O)cc1 [Compound 170, (6R)-17-amino-12-[[4-(2,2-dimethylpropyl)phenyl]methyl]-6-hydroxy-6,15-bis (trifluoromethyl)-19-oxa-3,4,12,18-tetrazatricyclo [12.3.1.12,5] nonadeca-1(18),2,4,14,1 6-pentaen-13-one] |
| > 6.30 | CC(C)(C)c1ncc(CN2CCCCC[C@](O)(C(F)(F)F)C3=NN=C(O3)c3nc(c(C(F)(F)F)cc3N)C2=O)cn1 [Compound 171, (6R)-17-amino-12-[(2-tert-butylpyrimidin-5-yl)methyl]-6-hydroxy-6,15-bis (trifluoromethyl)-19-oxa-3,4,12,18-tetrazatricyclo [12.3.1.12,5] nonadeca-1(18),2,4,14,1 6-pentaen-13-one] |
